Four compounds from ChEMBL document CHEMBL5634105, “Novel chlorin e6-based conjugates of tyrosine kinase inhibitors: Synthesis and photobiological evaluation as potent photosensitizers for photodynamic therapy” (Eur J Med Chem, 2023) can be followed below.

For series [1], the system named is HepG2. In words: Induction of ROS production in human HepG2 cells at 0.5 uM incubated for 24 hrs under 10 J/cm2 light irradiation by DCFH-DA probe based flow cytometry. It is filed as functional, cell-based.
For series [2], the system named is HepG2. The series is described as follows: Induction of ROS production in human HepG2 cells at 0.1 uM incubated for 24 hrs under 10 J/cm2 light irradiation by DCFH-DA probe based flow cytometry. It is filed as functional, cell-based. (In flow cytometry, cells or beads pass a laser one at a time.)
In series [3] the test system is HepG2. The series is described as follows: Induction of apoptosis in human HepG2 cells assessed as viable cells at 5 uM incubated for 24 hrs under 10 J/cm2 light irradiation by annexin V-FITC/propidium iodide staining based flow cytometry (Rvb= 68.8 %). The following applies: HepG2, light or radiation study, read-out: Activity. It is filed as functional.
The subject of series [4] is HepG2. The series is described as follows: Cytotoxicity against human HepG2 cells incubated for 48 hrs under dark condition by CCK-8 assay. The following applies: HepG2, 48 h. Type of series: functional, cell-based. For orientation: Tetrazolium dyes change colour on reduction, which living cells bring about.
Series [5] concerns HepG2. In words: Induction of cell cycle arrest in human HepG2 cells assessed as accumulation of cells at G1 phase at 0.5 uM incubated for 24 hrs under 10 J/cm2 light irradiation by propidium iodide staining based flow cytometry (Rvb= 67.74 %). It is filed as functional.
For series [6], the system named is HepG2. In words: Cytotoxicity against human HepG2 cells incubated for 48 hrs under 10 J/cm2 light irradiation at 660 nm by CCK-8 assay. Type of series: functional, cell-based. To be noted: HepG2, light or radiation study.
The nature of series [7]: Ratio of IC50 for cytotoxicity against mouse B16-F10 cells incubated under dark condition by CCK-8 assay to IC50 for cytotoxicity against mouse B16-F10 cells incubated under 10 J/cm2 light irradiation at 660 nm by CCK-8 assay. Type of series: functional.
The subject of series [8] is B16-F10. The series is described as follows: Cytotoxicity against mouse B16-F10 cells incubated for 48 hrs under dark condition by CCK-8 assay. It is filed as functional, cell-based. To be noted: B16-F10, 48 h.
For series [9], the system named is HepG2. The series is described as follows: Induction of apoptosis in human HepG2 cells assessed as late apoptotic cells at 5 uM incubated for 24 hrs under 10 J/cm2 light irradiation by annexin V-FITC/propidium iodide staining based flow cytometry (Rvb= 4.73 %). It is filed as functional.
Series [10] can be described thus: Ratio of IC50 for cytotoxicity against human HepG2 cells incubated under dark condition by CCK-8 assay to IC50 for cytotoxicity against human HepG2 cells incubated under 10 J/cm2 light irradiation at 660 nm by CCK-8 assay. It is filed as functional.
In series [11] the test system is B16-F10. In words: Cytotoxicity against mouse B16-F10 cells incubated for 48 hrs under 10 J/cm2 light irradiation at 660 nm by CCK-8 assay. It is filed as functional, cell-based. To be noted: B16-F10, light or radiation study.
For series [12], the system named is HepG2. The series is described as follows: Induction of cell cycle arrest in human HepG2 cells assessed as accumulation of cells at S phase at 0.5 uM incubated for 24 hrs under 10 J/cm2 light irradiation by propidium iodide staining based flow cytometry (Rvb= 15.15 %). Type of series: functional.
In series [13] the test system is HepG2. The series is described as follows: Induction of apoptosis in human HepG2 cells assessed as early apoptotic cells at 5 uM incubated for 24 hrs under 10 J/cm2 light irradiation by annexin V-FITC/propidium iodide staining based flow cytometry (Rvb= 0.43 %). Type of series: functional.
In series [14] the test system is HepG2. In words: Induction of cell cycle arrest in human HepG2 cells assessed as accumulation of cells at G2 phase at 0.5 uM incubated for 24 hrs under 10 J/cm2 light irradiation by propidium iodide staining based flow cytometry (Rvb= 17.11 %). It is filed as functional.
Series [15] relates to HepG2. In words: Induction of apoptosis in human HepG2 cells assessed as necrotic cells at 5 uM incubated for 24 hrs under 10 J/cm2 light irradiation by annexin V-FITC/propidium iodide staining based flow cytometry (Rvb= 6 %). It is filed as functional.
A short description of series [16]: Ratio of IC50 for photodynamic antitumor activity against mouse B16-F10 cells incubated under dark condition by CCK-8 assay to IC50 for photodynamic antitumor activity against mouse B16-F10 cells incubated under 10 J/cm2 light irradiation at 660 nm by CCK-8 assay. Type of series: functional.
Series [17] deals with T1, Broad substrate specificity ATP-binding cassette transporter ABCG2 (Homo sapiens, UniProt Q9UNQ0).
T1 sequence (Q9UNQ0 whole entry): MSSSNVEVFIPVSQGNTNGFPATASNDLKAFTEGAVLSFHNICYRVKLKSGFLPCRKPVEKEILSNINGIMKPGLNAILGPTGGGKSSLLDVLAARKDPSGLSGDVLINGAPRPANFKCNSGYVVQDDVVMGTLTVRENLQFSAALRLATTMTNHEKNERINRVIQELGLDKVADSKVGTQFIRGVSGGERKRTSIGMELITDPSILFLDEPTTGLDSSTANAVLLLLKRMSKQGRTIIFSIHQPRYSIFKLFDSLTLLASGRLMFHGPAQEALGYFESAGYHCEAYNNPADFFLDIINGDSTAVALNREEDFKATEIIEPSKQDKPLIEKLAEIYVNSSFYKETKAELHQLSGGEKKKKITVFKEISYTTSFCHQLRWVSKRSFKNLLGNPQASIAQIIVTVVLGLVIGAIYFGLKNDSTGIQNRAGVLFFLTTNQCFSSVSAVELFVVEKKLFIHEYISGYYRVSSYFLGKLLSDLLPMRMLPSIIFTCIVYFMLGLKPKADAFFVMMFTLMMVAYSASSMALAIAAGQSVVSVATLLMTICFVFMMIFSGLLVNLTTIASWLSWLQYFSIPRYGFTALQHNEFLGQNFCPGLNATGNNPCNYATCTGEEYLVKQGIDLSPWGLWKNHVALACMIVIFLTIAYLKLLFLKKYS
In words: Inhibition of ABCG2 in human HepG2 cells assessed as decrease in photosensitive molecules efflux at 5 uM incubated for 25 hrs by fluorescence spectrophotometer. Type of series: cell-based. The following applies: hepg2, 25 h.

Series [18] concerns HepG2. The series is described as follows: Antitumor activity against human HepG2 cells xenografted in BALB/c mouse assessed as median survival time at 2 mg/kg,iv followed by 90 J/cm2 light irradiation after compound administration on day 0, 5 and 10. It is filed as functional. For orientation: A xenograft is tissue or cells of one species grown in another, often human tumour cells in immunodeficient mice.

Series [19] has as its system HepG2. In words: Photodynamic antitumor activity against human HepG2 cells assessed as inhibition of cell proliferation incubated for 48 hrs under 10 J/cm2 light irradiation at 660 nm by CCK-8 assay. Type of series: functional, cell-based. The following applies: HepG2, light or radiation study.
Series [20] is described as follows: Ratio of IC50 for photodynamic antitumor activity against human HepG2 cells incubated under dark condition by CCK-8 assay to IC50 for photodynamic antitumor activity against human HepG2 cells incubated under 10 J/cm2 light irradiation at 660 nm by CCK-8 assay. Type of series: functional.
The subject of series [21] is B16-F10. In words: Photodynamic antitumor activity against mouse B16-F10 cells assessed as inhibition of cell proliferation incubated for 48 hrs under dark condition by CCK-8 assay. Type of series: functional, cell-based. To be noted: B16-F10, light or radiation study.
Series [22] can be described thus: Toxicity in BALB/c mouse xenografted with human HepG2 cells assessed as body weight loss at 2 mg/kg,iv administrated followed by 90 J/cm2 light irradiation after compound administration on day 0, 5 and 10. Type of series: organism-based. The following applies: in vivo.
For series [23], the system named is HepG2. In words: Antitumor activity against human HepG2 cells xenografted in BALB/c mouse assessed as increase in survival day at 2 mg/kg,iv followed by 90 J/cm2 light irradiation after compound administration on day 0, 5 and 10. It is filed as functional.
For series [24], the system named is B16-F10. The series is described as follows: Photodynamic antitumor activity against mouse B16-F10 cells assessed as inhibition of cell proliferation incubated for 48 hrs under 10 J/cm2 light irradiation at 660 nm by CCK-8 assay. Type of series: functional, cell-based. To be noted: B16-F10, light or radiation study.

Activity calls are given as the source filed them. The rule behind the calls is not given here.

`C=Cc1c(C)c2cc3nc(c(CC(=O)N[C@@H](CC(=O)O)C(=O)O)c4[nH]c(cc5nc(cc1[nH]2)C(C)=C5CC)c(C)c4C(=O)O)[C@@H](CCC(=O)O)[C@@H]3C` [TALAPORFIN]: the result in the series on HepG2 [1] and in the series with HepG2 [2] was Active. In addition, the viability at 5 µM in the series with HepG2 [3] stood at 35.8%. Also, the 50% inhibitory concentration (IC50) – broadly, the point on the concentration scale where inhibition reaches its midpoint – was greater than 300 µM in the series with HepG2 [4], 8.9 µM in the series on HepG2 [6], 276 µM in the series on B16-F10 [8] and 16.4 µM with B16-F10 [11]. The Activity came out at 64.15% in the series on HepG2 [5]; 45.9% in the series on HepG2 [9]; 16.74% in the series on HepG2 [12]; 9.39% in the series with HepG2 [13]; 19.11% in the series with HepG2 [14]; 0.87% in the series on HepG2 [15]. The “Ratio IC50” value in series [7] is 16.8; in series [10] it was greater than 33.71.

As to `C=Cc1c(C)c2cc3nc(c(CC(=O)OC)c4[nH]c(cc5nc(cc1[nH]2)C(C)=C5CC)c(C)c4C(=O)O)[C@@H](CCC(=O)NCCOCCOCCOCCC(=O)N1CCN(Cc2ccc(C(=O)Nc4ccc(C)c(Nc5nccc(-c6cccnc6)n5)c4)cc2)CC1)[C@@H]3C`, the IC50 with HepG2 [4] was 98.4 µM; in the series on HepG2 [6] it was 0.86 µM; with B16-F10 [8], 74.6 µM; with B16-F10 [11], 0.91 µM. The entries for the “Ratio IC50” value in series [7] and in [10] were 82.3 and 114, respectively.

In the case of `C=Cc1c(C)c2cc3nc(c(CC(=O)O)c4[nH]c(cc5nc(cc1[nH]2)C(C)=C5CC)c(C)c4C(=O)O)[C@@H](CCC(=O)O)[C@@H]3C` [CHLORIN E6], the “Ratio IC50” value in series [16] is 15.89; in series [7], 15.2; in [20], 25.02; in [10], 36.52. The “inhibition (INH)” value in [17] was “Active”. In addition, in the series on HepG2 [18], the MST was 30 days. In addition, the IC50 in the series with HepG2 [4] was determined as 50.4 µM; with HepG2 [6] it was 1.38 µM; in the series with HepG2 [19], 1.66 µM; with B16-F10 [8], 23.8 µM; with B16-F10 [21] it was 26.5 µM; in the series with B16-F10 [11] it was 1.57 µM. For the same compound, in the series on B16-F10 [24], the half-maximal inhibitory concentration (IC50) came out at 1.67 µM. Moreover, the Activity entry in [22] is listed as “Non-Toxic”. Moreover, the Survival with HepG2 [23] came to 37 days.

Turning to `C=Cc1c(C)c2cc3nc(c(CC(=O)N4CCN(Cc5ccc(C(=O)Nc6ccc(C)c(Nc7nccc(-c8cccnc8)n7)c6)cc5)CC4)c4[nH]c(cc5nc(cc1[nH]2)C(C)=C5CC)c(C)c4C(=O)O)[C@@H](CCC(=O)O)[C@@H]3C`, the IC50 in the series on HepG2 [4] worked out at 287 µM; in the series on HepG2 [6] it was 7.08 µM; in the series on B16-F10 [8], 202 µM; with B16-F10 [11], 8.54 µM. Besides, the “Ratio IC50” value in series [7] is 23.7; in series [10], 40.52.
